Activity calls are given as the source filed them. The rule behind the calls is not given here.
How the values were obtained:
[1] = Drug metabolism assessed as compound formation using compound 4 irradiated with 365 nm 23 mW/cm2 UV light using high-power light-emitting diode by UV/vis spectroscopy; type: ADME
[2] = biological target: T1, NAD-dependent protein deacetylase sirtuin-2 (Homo sapiens) (UniProt Q8IXJ6); test: Inhibition of SIRT2 (unknown origin) at 200 uM by fluorescence-based assay
T1 sequence (whole entry): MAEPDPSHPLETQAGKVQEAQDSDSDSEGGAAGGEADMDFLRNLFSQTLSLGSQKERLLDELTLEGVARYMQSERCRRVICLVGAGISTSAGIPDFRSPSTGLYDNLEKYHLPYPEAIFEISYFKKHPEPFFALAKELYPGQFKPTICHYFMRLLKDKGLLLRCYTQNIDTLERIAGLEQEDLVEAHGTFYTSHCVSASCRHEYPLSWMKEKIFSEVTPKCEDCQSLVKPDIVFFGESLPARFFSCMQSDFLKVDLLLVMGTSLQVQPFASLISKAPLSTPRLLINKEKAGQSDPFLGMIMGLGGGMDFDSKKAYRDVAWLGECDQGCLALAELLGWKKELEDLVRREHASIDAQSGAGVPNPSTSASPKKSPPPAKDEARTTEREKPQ

[3] = biological target: T2, NAD-dependent protein deacetylase sirtuin-2 (Homo sapiens, UniProt Q8IXJ6); test: Inhibition of SIRT2 (unknown origin) by fluorescence-based assay
T2 sequence (Q8IXJ6 whole entry): T1 sequence (whole entry)

[4] = biological target: T1, NAD-dependent protein deacetylase sirtuin-2 (Homo sapiens); test: Binding affinity to recombinant SIRT2 (unknown origin) assessed as detection of tryptic peptide with amino acid sequence 175-IAGLEQEDLVEAHGTFYTSHCVSASCRHEYPLSWMK-210 at 400 uM in presence of NAD+ and peptide substrate by LC-MS/MS method
[5] = Photo activation assessed as [photo-decomposition irradiated with 365 nm 23 mW/cm2 UV light using high-power light-emitting diode by 1H and 19F NMR spectroscopy; type: physicochemical
[6] = biological target: T1, NAD-dependent protein deacetylase sirtuin-2 (Homo sapiens); test: Binding affinity to recombinant SIRT2 (unknown origin) assessed as photoaffinity labeling at H187 residue at 400 uM in presence of NAD+ and peptide substrate by LC-MS/MS method

Structure (SMILES) | Drug uptake [1] | inhibition [2] | IC50 [3] | Activity [4] | Drug metabolism [5] | Activity [6]
CCCCCC1CC(=O)c2cc(C(=[N+]=[N-])C(F)(F)F)ccc2O1 (configuration not stated) | Metabolite_Detected |  |  |  |  | 
CCCCCC1CC(=O)c2cc(N=[N+]=[N-])ccc2O1 (configuration not stated) |  | 51% |  |  |  | 
CCCCCC1CC(=O)c2cc(C3(C(F)(F)F)N=N3)ccc2O1 (configuration not stated) |  | 78% | 8.2 µM | Active | Metabolite_Detected | Active

Reference: ChEMBL document CHEMBL3860106, “Identification of the Binding Site of Chroman-4-one-Based Sirtuin 2-Selective Inhibitors using Photoaffinity Labeling in Combination with Tandem Mass Spectrometry” (J Med Chem, 2016)
